Measured values from the supplement of paper PMC10307832.

Legend:
Assay in all cases: relative viability (nuclei count vs DMSO), 5 days (fraction); higher = more cells survive
NCI-H1975 = tested on: NCI-H1975
Method in brief: (§1)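 After 5 days of treatment, lung cancer cells in 1536-well plates were fixed and stained in a single step (final 0.05% Triton X-100, 1% formaldehyde, 1 ug/ml Hoechst) and their nuclei counted on 4× images. Treatment had been applied by pin tool the day after seeding as one drug alone or as a fixed anchor-drug dose with five library-drug doses (not always all listed) in √10 steps. Relative viability is the nuclei count of treated wells divided by that of vehicle wells, and values are medians of duplicate plates.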

H3255 = tested on: H3255
Method in brief: as §1

NCI-H1734 = tested on: NCI-H1734
Method in brief: as §1

NCI-H1563 = tested on: NCI-H1563
Method in brief: as §1

ChaGo-K-1 = tested on: ChaGo-K-1
Method in brief: as §1

NCI-H1666 = tested on: NCI-H1666
Method in brief: as §1

NCI-H23 = tested on: NCI-H23
Method in brief: as §1

NCI-H2170 = tested on: NCI-H2170
Method in brief: as §1

LK-2 = tested on: LK-2
Method in brief: as §1

EKVX = tested on: EKVX
Method in brief: as §1

NCI-H596 = tested on: NCI-H596
Method in brief: as §1

HCC-366 = tested on: HCC-366
Method in brief: as §1

NCI-H441 = tested on: NCI-H441
Method in brief: as §1

COR-L 105 = tested on: COR-L 105
Method in brief: as §1

PC-3 [JPC-3] = tested on: PC-3 [JPC-3]
Method in brief: as §1

NCI-H1944 = tested on: NCI-H1944
Method in brief: as §1

SK-MES-1 = tested on: SK-MES-1
Method in brief: as §1

NCI-H1755 = tested on: NCI-H1755
Method in brief: as §1

LOU-NH91 = tested on: LOU-NH91
Method in brief: as §1

EMC-BAC-2 = tested on: EMC-BAC-2
Method in brief: as §1

A-427 = tested on: A-427
Method in brief: as §1

NCI-H520 = tested on: NCI-H520
Method in brief: as §1

NCI-H1792 = tested on: NCI-H1792
Method in brief: as §1

## Clc1ccc(Nc2nnc(Cc3ccncc3)c3ccccc23)cc1 [Vatalanib] + CS(=O)(=O)N1CCN(Cc2cc3nc(-c4cccc5[nH]ncc45)nc(N4CCOCC4)c3s2)CC1 [Pictilisib] (partner 1 µM)
NCI-H1975; first compound 0.04 µM
  relative viability: 0.277
NCI-H1975; first compound 0.1265 µM
  relative viability: 0.322
NCI-H1975; first compound 0.4 µM
  relative viability: 0.32
NCI-H1975; first compound 1.265 µM
  relative viability: 0.258
NCI-H1975; first compound 4 µM
  relative viability: 0.287
H3255; first compound 0.04 µM
  relative viability: 0.43
H3255; first compound 0.1265 µM
  relative viability: 0.52
H3255; first compound 0.4 µM
  relative viability: 0.311
H3255; first compound 1.265 µM
  relative viability: 0.384
H3255; first compound 4 µM
  relative viability: 0.438
NCI-H1734; first compound 0.04 µM
  relative viability: 0.478
NCI-H1734; first compound 0.1265 µM
  relative viability: 0.471
NCI-H1734; first compound 0.4 µM
  relative viability: 0.503
NCI-H1734; first compound 1.265 µM
  relative viability: 0.45
NCI-H1734; first compound 4 µM
  relative viability: 0.465
NCI-H1563; first compound 0.04 µM
  relative viability: 0.634
NCI-H1563; first compound 0.1265 µM
  relative viability: 0.677
NCI-H1563; first compound 0.4 µM
  relative viability: 0.685
NCI-H1563; first compound 1.265 µM
  relative viability: 0.673
NCI-H1563; first compound 4 µM
  relative viability: 0.652
ChaGo-K-1; first compound 0.04 µM
  relative viability: 0.418
ChaGo-K-1; first compound 0.1265 µM
  relative viability: 0.719
ChaGo-K-1; first compound 1.265 µM
  relative viability: 0.687
ChaGo-K-1; first compound 4 µM
  relative viability: 0.787
NCI-H1666; first compound 0.04 µM
  relative viability: 0.538
NCI-H1666; first compound 0.1265 µM
  relative viability: 0.334
NCI-H1666; first compound 0.4 µM
  relative viability: 0.33
NCI-H1666; first compound 1.265 µM
  relative viability: 0.512
NCI-H1666; first compound 4 µM
  relative viability: 0.499
NCI-H23; first compound 0.04 µM
  relative viability: 0.45
NCI-H23; first compound 0.1265 µM
  relative viability: 0.412
NCI-H23; first compound 0.4 µM
  relative viability: 0.511
NCI-H23; first compound 1.265 µM
  relative viability: 0.436
NCI-H23; first compound 4 µM
  relative viability: 0.552
NCI-H2170; first compound 0.04 µM
  relative viability: 0.319
NCI-H2170; first compound 0.1265 µM
  relative viability: 0.331
NCI-H2170; first compound 0.4 µM
  relative viability: 0.329
NCI-H2170; first compound 1.265 µM
  relative viability: 0.356
NCI-H2170; first compound 4 µM
  relative viability: 0.306
LK-2; first compound 0.04 µM
  relative viability: 0.531
LK-2; first compound 0.1265 µM
  relative viability: 0.561
LK-2; first compound 1.265 µM
  relative viability: 0.651
LK-2; first compound 4 µM
  relative viability: 0.569
EKVX; first compound 0.04 µM
  relative viability: 0.39
EKVX; first compound 0.1265 µM
  relative viability: 0.463
EKVX; first compound 0.4 µM
  relative viability: 0.391
EKVX; first compound 1.265 µM
  relative viability: 0.344
EKVX; first compound 4 µM
  relative viability: 0.396
NCI-H596; first compound 0.04 µM
  relative viability: 0.347
NCI-H596; first compound 0.1265 µM
  relative viability: 0.353
NCI-H596; first compound 0.4 µM
  relative viability: 0.392
NCI-H596; first compound 1.265 µM
  relative viability: 0.371
NCI-H596; first compound 4 µM
  relative viability: 0.393
HCC-366; first compound 0.04 µM
  relative viability: 0.137
HCC-366; first compound 0.1265 µM
  relative viability: 0.196
HCC-366; first compound 0.4 µM
  relative viability: 0.131
HCC-366; first compound 1.265 µM
  relative viability: 0.0986
HCC-366; first compound 4 µM
  relative viability: 0.11
NCI-H441; first compound 0.04 µM
  relative viability: 0.561
NCI-H441; first compound 0.1265 µM
  relative viability: 0.4
NCI-H441; first compound 0.4 µM
  relative viability: 0.592
NCI-H441; first compound 1.265 µM
  relative viability: 0.474
NCI-H441; first compound 4 µM
  relative viability: 0.501
COR-L 105; first compound 0.04 µM
  relative viability: 0.361
COR-L 105; first compound 0.1265 µM
  relative viability: 0.4
COR-L 105; first compound 0.4 µM
  relative viability: 0.276
COR-L 105; first compound 1.265 µM
  relative viability: 0.359
COR-L 105; first compound 4 µM
  relative viability: 0.377
PC-3 [JPC-3]; first compound 0.04 µM
  relative viability: 0.796
PC-3 [JPC-3]; first compound 0.1265 µM
  relative viability: 0.715
PC-3 [JPC-3]; first compound 0.4 µM
  relative viability: 0.645
PC-3 [JPC-3]; first compound 1.265 µM
  relative viability: 0.726
PC-3 [JPC-3]; first compound 4 µM
  relative viability: 0.752
NCI-H1944; first compound 0.04 µM
  relative viability: 0.351
NCI-H1944; first compound 0.1265 µM
  relative viability: 0.316
NCI-H1944; first compound 0.4 µM
  relative viability: 0.37
NCI-H1944; first compound 1.265 µM
  relative viability: 0.356
NCI-H1944; first compound 4 µM
  relative viability: 0.352
SK-MES-1; first compound 0.04 µM
  relative viability: 0.408
SK-MES-1; first compound 0.1265 µM
  relative viability: 0.351
SK-MES-1; first compound 0.4 µM
  relative viability: 0.387
SK-MES-1; first compound 1.265 µM
  relative viability: 0.338
SK-MES-1; first compound 4 µM
  relative viability: 0.365
NCI-H1755; first compound 0.04 µM
  relative viability: 0.405
NCI-H1755; first compound 0.1265 µM
  relative viability: 0.395
NCI-H1755; first compound 0.4 µM
  relative viability: 0.453
NCI-H1755; first compound 1.265 µM
  relative viability: 0.387
NCI-H1755; first compound 4 µM
  relative viability: 0.383
LOU-NH91; first compound 0.04 µM
  relative viability: 0.512
LOU-NH91; first compound 0.1265 µM
  relative viability: 0.541
LOU-NH91; first compound 0.4 µM
  relative viability: 0.461
LOU-NH91; first compound 1.265 µM
  relative viability: 0.503
LOU-NH91; first compound 4 µM
  relative viability: 0.517
EMC-BAC-2; first compound 0.04 µM
  relative viability: 0.559
EMC-BAC-2; first compound 0.1265 µM
  relative viability: 0.556
EMC-BAC-2; first compound 0.4 µM
  relative viability: 0.572
EMC-BAC-2; first compound 1.265 µM
  relative viability: 0.533
EMC-BAC-2; first compound 4 µM
  relative viability: 0.525
A-427; first compound 0.04 µM
  relative viability: 0.667
A-427; first compound 0.1265 µM
  relative viability: 0.671
A-427; first compound 0.4 µM
  relative viability: 0.736
A-427; first compound 1.265 µM
  relative viability: 0.624
A-427; first compound 4 µM
  relative viability: 0.677
NCI-H520; first compound 0.04 µM
  relative viability: 0.312
NCI-H520; first compound 0.1265 µM
  relative viability: 0.277
NCI-H520; first compound 0.4 µM
  relative viability: 0.34
NCI-H520; first compound 1.265 µM
  relative viability: 0.306
NCI-H520; first compound 4 µM
  relative viability: 0.308
NCI-H1792; first compound 0.04 µM
  relative viability: 0.279
NCI-H1792; first compound 0.1265 µM
  relative viability: 0.327
NCI-H1792; first compound 0.4 µM
  relative viability: 0.249
NCI-H1792; first compound 1.265 µM
  relative viability: 0.276
NCI-H1792; first compound 4 µM
  relative viability: 0.28
